Reference: patent publication US20210332001A1, “SYNTHESIS AND ANTI-TUMOR ACTIVITIES OF ACYL-PARA-AMINOPHENOL DERIVATIVES” (Montefiore Medical Center, priority 2018, published 2021)
One block for each compound: values may come before it.

Legend:
[1] = tested on: U87MG cells, stage IV astrocytoma; test: U87MG cell survival (presto blue), 48 hours post treatment; format: cell-based
Description: (§1) FIG. 1. U87MG cells, stage IV astrocytoma obtained from ATCC, were tested against APAP and its derivatives at various concentrations with 0.2% DMSO as a vehicle. Cells were seeded at 3500 cells and allowed 48 hours to stabilize before treatment. Drugs were administered and data for cell survival, using presto blue, were analyzed at 48 hours post treatment.
as §1, with “U87MG” for “FIG. 1. U87MG”, “concentration” for “concentrations”, “vehicle (FIG. 1).” for “vehicle.”

[2] = tested on: differentiated neuronal cell line HCN-2; test: Toxicity on differentiated neuronal cell line HCN-2; format: cell-based, human; conditions: HCN-2 differentiated 12 days; for reduction (non-significant): highest soluble concentration, not a significant reduction
Description: FIG. 3. The compounds were tested on a differentiated neuronal cell line (9) HCN-2, obtained from ATCC. Cells were seeded at 5,000 cells per well using a low passage, second passage of cells to ensure cell stability. Cells were then subjected to induced differentiation, at 72 hours, with a differentiating concoction composed of 25 ng/mL NGF-beta-human, 0.05 mM dibutyryl cAMP and 0.5 mM IBMX in 10% DMEM, all differentiating factors were obtained from Sigma Aldrich (9). Cells were treated with differentiating factor for 12 days to ensure that cells differentiated into neuronal cells. On the twelfth day, cells were treated with and without drugs at the highest soluble concentration to determine the activity of the compounds on neuronal cells.
The compounds were also tested on a differentiated neuronal cell line, HCN-2, obtained from ATCC (FIG. 3).

[3] = tested on: T-cell lymphoma cells line (Jurkat cells); test: Jurkat T-cell lymphoma cell survival (presto blue), 48 hours post treatment; format: cell-based
Description: FIG. 2. The compounds were tested against T-cell lymphoma cells line (Jurkat cells) obtained from ATCC and were tested against APAP and its derivatives at various concentrations with 0.2% DMSO as a vehicle. Free flowing cells were seeded at 3500 cells and allowed 48 hours to stabilize before treatment. Drugs were administered to both seeded wells and wells that that were designated blank, without cells. This additional step was added in order to account for the effects of the drugs on the reagent used for analysis. Data for cell survival, using presto blue, was analyzed at 48 hours post treatment.
The effects of the drugs on lymphoma cells were tested on Jurkat cells, as described above and in FIG. 2.

[4] = tested on: malignant astrocytes; conditions: cell culture method, Casper et al. (6); cited from earlier work

SMILES: CC(C)C(=O)Nc1ccc(O)cc1 [PL4, N-(4-hydroxyphenyl)-2-methylpropanamide]
melting point: 160 to 162 °C

SMILES: O=C(Nc1ccc(O)cc1)c1ccccc1 [PL5B, N-(4-hydroxyphenyl)benzamide]
melting point: 217 to 218 °C

SMILES: O=C(Nc1ccc(O)cc1)c1ccc2ccccc2c1 [PL11]
reduction in cell growth ([1]; 0.25 mM): 87.5%
reduction (non-significant) [2]: 35.6%

SMILES: CC(=O)Nc1ccc(O)cc1 [APAP, N-(4-Hydroxyphenyl)acetamide, reference compound]
reduction in cell growth as compared to control 0.2% DMSO ([1]; 2 mM): 36%
reduction in cell growth as compared to control 0.2% DMSO ([3]; 2 mM): 16%
ability to reduce the growth of malignant astrocytes [4]: only mild

SMILES: CCCCCC(=O)Nc1ccc(O)cc1 [PL6, N-(4-hydroxyphenyl)hexanamide]
melting point: 110 °C

SMILES: CCCCCCC(=O)Nc1ccc(O)cc1 [PL7, N-(4-hydroxyphenyl)heptanamide]
activity (cell survival) in words ([1]; 0.5 mM): greatest activity
toxicity on neuronal cells ([2]; highest concentration 0.5 mM): toxicity
melting point: 109 °C

Now from value to compound, other results behind:

melting point: 128 °C
SMILES: CCCCCCCCCCCC(=O)Nc1ccc(O)cc1 [PL12, N-(4-hydroxyphenyl)dodecanamide]

melting point: 124 °C
SMILES: CCCCCCCCCC(=O)Nc1ccc(O)cc1 [PL10, N-(4-hydroxyphenyl)decanamide]
activity when compared to APAP ([3]; 0.125 mM): greatest activity
reduction (non-significant) [2]: 35.6%

melting point: 120 °C
SMILES: CCCCCCCC(=O)Nc1ccc(O)cc1 [PL8, N-(4-hydroxyphenyl)octanamide]
activity (cell survival) in words ([1]; 0.25 mM): greatest activity
toxicity on neuronal cells ([2]; highest concentration 0.5 mM): toxicity

melting point: 131 °C
SMILES: CCCCCCCCCCCCCCCC(=O)Nc1ccc(O)cc1 [PL16, N-(4-Hydroxyphenyl)hexadecanamide]

melting point: 119 °C
SMILES: CCCCCCCCC(=O)Nc1ccc(O)cc1 [PL9, N-(4-hydroxyphenyl)nonanamide]
toxicity on neuronal cells ([2]; highest concentration 0.25 mM): toxicity
